Source: patent US5087726A, “Carbamate ACAT inhibitors” (Warner-Lambert Company, priority 1990, dated 1992)

Target: T1, acyl-CoA:cholesterol acyltransferase (ACAT) (Oryctolagus cuniculus, UniProt G1SFD9)
T1 construct: tissue preparation containing rabbit intestinal microsomes; from tissue; host or cells: rabbit intestinal microsomes
T1 sequence (G1SFD9 1-524): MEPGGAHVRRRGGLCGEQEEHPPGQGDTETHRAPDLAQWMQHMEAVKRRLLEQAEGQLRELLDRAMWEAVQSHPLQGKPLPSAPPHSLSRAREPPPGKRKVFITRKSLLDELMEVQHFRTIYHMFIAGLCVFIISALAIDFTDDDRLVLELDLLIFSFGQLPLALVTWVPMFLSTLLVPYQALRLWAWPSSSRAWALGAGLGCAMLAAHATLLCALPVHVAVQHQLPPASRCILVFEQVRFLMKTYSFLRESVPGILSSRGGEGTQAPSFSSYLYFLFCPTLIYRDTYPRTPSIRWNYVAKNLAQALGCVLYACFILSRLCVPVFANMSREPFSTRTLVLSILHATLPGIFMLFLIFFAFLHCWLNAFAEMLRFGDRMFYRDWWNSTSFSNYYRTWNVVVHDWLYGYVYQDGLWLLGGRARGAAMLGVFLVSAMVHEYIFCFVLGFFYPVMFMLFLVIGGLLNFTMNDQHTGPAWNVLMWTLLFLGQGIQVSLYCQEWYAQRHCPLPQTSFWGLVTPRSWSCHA
Experiment: in vitro ACAT inhibition: radiolabeled cholesterol oleate formed from radiolabeled oleic acid in rabbit intestinal microsomes
Type: biochemical
Conditions: tissue preparation containing rabbit intestinal microsomes; read-out: IC50 value, i.e. the concentration of test compound required to inhibit 50% expression of the enzyme
Procedure: The ability of representative compounds of the present invention to inhibit ACAT was measured using an in vitro test more fully described in Field, F. J. and Salone, R. G., Biochemica et Biophysica 712: 557-570 (1982). The test assesses the ability of a test compound to inhibit the acylation of cholesterol by oleic acid by measuring the amount of radiolabeled cholesterol oleate formed from radiolabeled oleic acid in a tissue preparation containing rabbit intestinal microsomes.

CCCCCCCCCCCC(=O)N[C@@H](CNC(=O)Oc1c(C(C)C)cccc1C(C)C)c1ccccc1 [Example 1]
IC50: 0.51 nM
